We go through 22 compounds from ChEMBL document CHEMBL4364326, “Design, synthesis and biological evaluation of 2-(4-alkoxy-3-cyano)phenyl-6-oxo-1,6-dihydropyrimidine-5-carboxylic acid derivatives as novel xanthine oxidase inhibitors” (Eur J Med Chem, 2019).

In series [1] the target is T1, Xanthine dehydrogenase/oxidase (Bos taurus, UniProt P80457). In words: Inhibition of bovine xanthine oxidase assessed as reduction in uric acid formation using xanthine as substrate preincubated with enzyme for 15 mins followed by substrate addition and measured every 30 secs for 2 mins by spectrophotometric method.
Series [2] has as its system Rattus norvegicus. In words: Anti-hyperuricemic activity in potassium oxonate-induced acute hyperuricemia Sprague-Dawley rat model assessed as reduction in AUC of uric acid in serum at 10 mg/kg, ig pretreated for 1 hr followed by potassium oxonate challenge and measured at 2 hrs post drug administration (reference value: 23%). The series is classed as functional. As to conditions: po.

Series [3] has as its target T1, Xanthine dehydrogenase/oxidase. As to the kind of experiment: Potency index, Ratio of allopurinol IC50 to compound IC50 for bovine xanthine oxidase using xanthine as substrate by spectrophotometry. As to conditions: cattle.
Series [4] concerns Rattus norvegicus. As to the kind of experiment: Anti-hyperuricemic activity in potassium oxonate-induced acute hyperuricemia Sprague-Dawley rat model assessed as reduction in AUC of uric acid in serum at 5 mg/kg, ig pretreated for 1 hr followed by potassium oxonate challenge and measured at 2 hrs post drug administration (reference value: 23%). Type of series: functional. As to conditions: po.

A short description of series [5]: Acute oral toxicity in KM mouse measured for 24 hrs by OCED guideline method. As to conditions: in vivo.
Series [6] relates to Rattus norvegicus. In words: Anti-hyperuricemic activity in potassium oxonate-induced acute hyperuricemia Sprague-Dawley rat model assessed as reduction in uric acid level in serum at 5 mg/kg, ig pretreated for 1 hr followed by potassium oxonate challenge and measured at 2 hrs post drug administration. Type of series: functional, organism-based.
The target in series [7] is T1, Xanthine dehydrogenase/oxidase. In words: Mixed type inhibition of bovine xanthine oxidase assessed as increase in Km with decrease in Vmax of the enzyme using xanthine as substrate preincubated with enzyme for 15 mins followed by substrate addition and measured every 30 secs for 2 mins by Lineweaver-Burk plot analysis. As to conditions: cattle.
Series [8] can be described thus: Acute oral toxicity in KM mouse assessed as change in behavior at 2000 mg/kg measured for 24 hrs. The series is classed as organism-based. Conditions: in vivo.

pIC50: −log10 of the molar value. The source made the active and inactive calls. The calls are words filed in the database; no cut-off is given here. Bounds are passed on as bounds.

T1 sequence (P80457 whole entry): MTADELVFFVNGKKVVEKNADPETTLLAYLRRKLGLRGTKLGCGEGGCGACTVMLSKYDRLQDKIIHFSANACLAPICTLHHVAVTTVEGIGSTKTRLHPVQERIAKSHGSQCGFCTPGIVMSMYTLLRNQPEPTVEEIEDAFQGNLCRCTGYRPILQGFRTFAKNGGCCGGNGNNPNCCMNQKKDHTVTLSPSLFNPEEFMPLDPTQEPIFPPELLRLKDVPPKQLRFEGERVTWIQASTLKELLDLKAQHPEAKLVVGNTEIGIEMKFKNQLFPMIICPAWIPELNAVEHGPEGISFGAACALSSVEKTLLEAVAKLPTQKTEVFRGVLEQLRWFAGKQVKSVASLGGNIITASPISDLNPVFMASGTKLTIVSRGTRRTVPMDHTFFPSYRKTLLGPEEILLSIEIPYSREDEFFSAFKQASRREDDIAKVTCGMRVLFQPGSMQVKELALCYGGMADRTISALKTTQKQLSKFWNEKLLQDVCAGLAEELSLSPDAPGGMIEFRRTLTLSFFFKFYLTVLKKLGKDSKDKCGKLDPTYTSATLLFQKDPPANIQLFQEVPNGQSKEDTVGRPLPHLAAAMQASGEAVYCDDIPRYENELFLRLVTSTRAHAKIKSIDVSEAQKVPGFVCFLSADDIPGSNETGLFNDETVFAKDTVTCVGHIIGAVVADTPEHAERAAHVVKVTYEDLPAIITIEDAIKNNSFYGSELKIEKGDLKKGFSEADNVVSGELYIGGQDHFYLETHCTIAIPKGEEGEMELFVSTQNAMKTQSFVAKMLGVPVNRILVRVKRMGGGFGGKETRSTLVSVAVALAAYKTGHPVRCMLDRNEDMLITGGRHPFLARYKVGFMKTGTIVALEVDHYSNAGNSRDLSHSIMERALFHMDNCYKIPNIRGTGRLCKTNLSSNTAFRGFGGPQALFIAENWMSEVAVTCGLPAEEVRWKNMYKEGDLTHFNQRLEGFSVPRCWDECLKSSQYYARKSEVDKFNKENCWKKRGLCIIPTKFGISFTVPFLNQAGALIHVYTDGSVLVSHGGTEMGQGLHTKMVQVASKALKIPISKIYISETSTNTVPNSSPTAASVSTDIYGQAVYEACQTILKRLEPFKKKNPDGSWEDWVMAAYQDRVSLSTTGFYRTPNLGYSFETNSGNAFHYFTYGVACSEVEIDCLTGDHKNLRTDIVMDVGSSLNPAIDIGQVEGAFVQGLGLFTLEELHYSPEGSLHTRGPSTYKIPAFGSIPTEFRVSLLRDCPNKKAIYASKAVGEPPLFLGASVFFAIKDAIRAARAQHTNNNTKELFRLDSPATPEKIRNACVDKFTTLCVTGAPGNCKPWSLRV

Consider `CC(C)(C)c1ccc(COc2ccc(-c3ncc(C(=O)O)c(=O)[nH]3)cc2C#N)cc1`, for which the pIC50 in series [1] was 6.71.
The same measure, in the same setting: with `C=C(C)COc1ccc(-c2nc(C)c(C(=O)O)c(=O)[nH]2)cc1C#N` the figure was 6.25.
Regarding `N#Cc1cc(-c2ncc(C(=O)O)c(=O)[nH]2)ccc1OCc1ccc(Br)cc1`, in series [1], the pIC50 was 7.53.
Take `Oc1ncnc2[nH]ncc12` [ALLOPURINOL]: the inhibition in vivo at 10 mg/kg in the series on Rattus norvegicus [2] was found to be 38.7%.
`CC(C)Oc1ccc(-c2ncc(C(=O)O)c(=O)[nH]2)cc1C#N`: the pIC50 in series [1] was 7.04.
On the same count and under the same terms, with `N#Cc1cc(-c2ncc(C(=O)O)c(=O)[nH]2)ccc1OCc1ccccc1` the figure was 7.41; with `Cc1ccc(COc2ccc(-c3nc(C)c(C(=O)O)c(=O)[nH]3)cc2C#N)cc1`, 6.80.
As to `C=C(C)COc1ccc(-c2ncc(C(=O)O)c(=N)[nH]2)cc1C#N`, the pIC50 in series [1] is 7.74. The “Ratio IC50” value in series [3] was 419.
Consider `N#Cc1cc(-c2ncc(C(=O)O)c(=O)[nH]2)ccc1OCc1ccc(Cl)cc1`, for which the pIC50 in series [1] was 7.30.
In the case of `Cc1ccc(COc2ccc(-c3ncc(C(=O)O)c(=O)[nH]3)cc2C#N)cc1`, in series [1], the pIC50 is 7.45.
In the case of `Cc1nc(-c2ccc(OCC(C)C)c(C#N)c2)sc1C(=O)O` [FEBUXOSTAT], the inhibition in vivo at 5 mg/kg in the series on Rattus norvegicus [4] amounted to 50.8%.
For `CC(C)COc1ccc(-c2ncc(C(=O)O)c(=O)[nH]2)cc1C#N`, the pIC50 in series [1] is 7.22.
Same read-out and setting: with `C=CCOc1ccc(-c2ncc(C(=O)O)c(=O)[nH]2)cc1C#N` the figure was 7.09; with `N#Cc1cc(-c2ncc(C(=O)O)c(=N)[nH]2)ccc1OCc1ccc(Br)cc1`, 7.57.
Still for that read-out and setting: for `N#Cc1cc(-c2ncc(C(=O)O)c(=O)[nH]2)ccc1OCc1ccc(F)cc1` the value was 7.42.
Still for that read-out and setting: for `CC(C)CCOc1ccc(-c2ncc(C(=O)O)c(=O)[nH]2)cc1C#N` the value was 7.60.
Take `Cc1nc(-c2ccc(OCc3ccc(Br)cc3)c(C#N)c2)[nH]c(=O)c1C(=O)O`: the pIC50 in series [1] was 6.73.
The compound `CC(C)CCOc1ccc(-c2ncc(C(=O)O)c(=N)[nH]2)cc1C#N` displayed an LD50 at 24 h in series [5] of over 2000 mg/kg. Moreover, the inhibition entry in the series with Rattus norvegicus [6] is “Active”. Moreover, the inhibition in vivo at 5 mg/kg in the series with Rattus norvegicus [4] worked out at 36.1%. Besides, in series [7], the “inhibition (INH)” value is given as “Active”. For the same compound, the Activity entry in series [8] is reported as “Non-Toxic”.
As for `Cc1nc(-c2ccc(OCCC(C)C)c(C#N)c2)[nH]c(=O)c1C(=O)O`, in series [1], the pIC50 was 6.27.
Turning to `C=C(C)COc1ccc(-c2ncc(C(=O)O)c(=O)[nH]2)cc1C#N`, the pIC50 in series [1] was 7.47.
Regarding `CC(C)=CCOc1ccc(-c2ncc(C(=O)O)c(=O)[nH]2)cc1C#N`, in series [1], the pIC50 was 7.41.
Same read-out and setting: with `Cc1ccc(COc2ccc(-c3ncc(C(=O)O)c(=N)[nH]3)cc2C#N)cc1` the figure was 7.47.
